Test results as given in ChEMBL document CHEMBL1201861, “Genomics of Drug Sensitity in Cancer screening data, Wellcome Trust Sanger Institute”.

Columns and labels:
Assay in all cases: cells
[1] = test system: HPAF-II; format: functional, cell-based, Homo sapiens; conditions: Homo sapiens, HPAF-II;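 note: growth inhibition of HPAF-II cells, read out with a cell viability assay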
Description: SANGER: Inhibition of human HPAF-II cell growth in a cell viability assay.

[2] = test system: 5637; format: functional, cell-based, Homo sapiens; conditions: Homo sapiens
Description: SANGER: Inhibition of human 5637 cell growth in a cell viability assay.

[3] = test system: YKG-1; format: functional, cell-based, Homo sapiens; conditions: Homo sapiens, YKG-1;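 note: cell growth inhibition, read out with a viability assay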
Description: SANGER: Inhibition of human YKG-1 cell growth in a cell viability assay.

[4] = test system: HO-1-N-1; format: functional, cell-based, Homo sapiens; conditions: Homo sapiens, HO-1-N-1;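 note: growth inhibition of human HO-1-N-1 cells, read out with a cell viability assay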
Description: SANGER: Inhibition of human HO-1-N-1 cell growth in a cell viability assay.

[5] = test system: KYSE-150 cell line; format: functional, cell-based, Homo sapiens; conditions: Homo sapiens, KYSE-150;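 note: growth inhibition of human KYSE-150 cells, read out with a cell viability assay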
Description: SANGER: Inhibition of human KYSE-150 cell growth in a cell viability assay.

[6] = test system: T84; format: functional, cell-based, Homo sapiens; conditions: Homo sapiens, T84;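 note: growth inhibition measured with a cell viability readout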
Description: SANGER: Inhibition of human T84 cell growth in a cell viability assay.

[7] = test system: KU812 cell line; format: functional, cell-based; conditions: Homo sapiens;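 note: growth inhibition of KU812 cells, read out with a cell viability assay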
Description: SANGER: Inhibition of human KU812 cell growth in a cell viability assay.

[8] = test system: HL-60; format: functional, cell-based; conditions: Homo sapiens;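 note: growth inhibition of human HL-60 cells, read out with a cell viability assay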
Description: SANGER: Inhibition of human HL-60 cell growth in a cell viability assay.

[9] = test system: BT-20; format: functional, cell-based, Homo sapiens; conditions: Homo sapiens, BT-20;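 note: cell viability assay measuring suppression of growth in human BT-20 cells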
Description: SANGER: Inhibition of human BT-20 cell growth in a cell viability assay.

[10] = test system: TE-5; format: functional, cell-based, Homo sapiens; conditions: Homo sapiens, TE-5;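 note: inhibition of cell growth, read out by a cell viability assay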
Description: SANGER: Inhibition of human TE-5 cell growth in a cell viability assay.

[11] = test system: RPMI-7951; format: functional, cell-based, Homo sapiens; conditions: Homo sapiens, RPMI-7951
Description: SANGER: Inhibition of human RPMI-7951 cell growth in a cell viability assay.

[12] = test system: SK-MEL-24; format: functional, cell-based; conditions: Homo sapiens;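 note: growth inhibition read out by a cell viability assay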
Description: SANGER: Inhibition of human SK-MEL-24 cell growth in a cell viability assay.

[13] = test system: NCI-H1304; format: functional, cell-based; conditions: Homo sapiens;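 note: growth inhibition of the cancer cell line, measured in a cell viability assay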
Description: SANGER: Inhibition of human NCI-H1304 cell growth in a cell viability assay.

[14] = test system: BB49-HNC; format: functional, cell-based, Homo sapiens; conditions: Homo sapiens, BB49-HNC;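 note: cell viability assay read-out, reported as inhibition of BB49-HNC cell growth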
Description: SANGER: Inhibition of human BB49-HNC cell growth in a cell viability assay.

[15] = test system: SK-OV-3; format: functional, cell-based, Homo sapiens; conditions: Homo sapiens, SK-OV-3;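 note: growth inhibition of SK-OV-3 human cells, read out with a cell viability assay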
Description: SANGER: Inhibition of human SK-OV-3 cell growth in a cell viability assay.

[16] = test system: SW 954; format: functional, cell-based, Homo sapiens; conditions: Homo sapiens, SW 954;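 note: growth inhibition of SW954 human cancer cells, read out as cell viability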
Description: SANGER: Inhibition of human SW954 cell growth in a cell viability assay.

[17] = test system: RH-1; format: functional, cell-based, Homo sapiens; conditions: Homo sapiens, RH-1;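 note: growth inhibition of human RH-1 cells, read out with a cell viability assay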
Description: SANGER: Inhibition of human RH-1 cell growth in a cell viability assay.

[18] = test system: SW1417; format: functional, cell-based, Homo sapiens; conditions: Homo sapiens, SW1417;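 note: growth inhibition of human SW1417 cells, read out with a cell viability assay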
Description: SANGER: Inhibition of human SW1417 cell growth in a cell viability assay.

[19] = test system: KYSE-410; format: functional, cell-based, Homo sapiens; conditions: Homo sapiens, KYSE-410;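 note: growth inhibition of KYSE-410 cells, measured through a cell viability readout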
Description: SANGER: Inhibition of human KYSE-410 cell growth in a cell viability assay.

[20] = test system: SK-HEP1; format: functional, cell-based, Homo sapiens, SK-HEP-1; conditions: Homo sapiens, SK-HEP1;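 note: cell viability readout used to quantify reduction in proliferation of human SK-HEP-1 cells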
Description: SANGER: Inhibition of human SK-HEP-1 cell growth in a cell viability assay.

[21] = test system: EW-13; format: functional, cell-based; conditions: Homo sapiens;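 note: growth inhibition of EW-13 cells, read out with a cell viability assay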
Description: SANGER: Inhibition of human EW-13 cell growth in a cell viability assay.

[22] = test system: LB996-RCC; format: functional, cell-based; conditions: Homo sapiens
Description: SANGER: Inhibition of human LB996-RCC cell growth in a cell viability assay.

[23] = test system: KG-1; format: functional, cell-based; conditions: Homo sapiens;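 note: growth inhibition of KG-1 cells, read out by a cell viability assay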
Description: SANGER: Inhibition of human KG-1 cell growth in a cell viability assay.

[24] = test system: ES5; format: functional, cell-based, Homo sapiens; conditions: Homo sapiens, ES5;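 note: growth inhibition of human ES5 cells, read out by a cell viability assay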
Description: SANGER: Inhibition of human ES5 cell growth in a cell viability assay.

[25] = test system: MOLT-16; format: functional, cell-based; conditions: Homo sapiens;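 note: growth inhibition of human MOLT-16 cells, read out with a cell viability assay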
Description: SANGER: Inhibition of human MOLT-16 cell growth in a cell viability assay.

[26] = test system: OVCAR-4; format: functional, cell-based, Homo sapiens; conditions: Homo sapiens, OVCAR-4;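 note: growth inhibition of human OVCAR-4 cells, measured with a cell viability assay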
Description: SANGER: Inhibition of human OVCAR-4 cell growth in a cell viability assay.

[27] = test system: SW780; format: functional, cell-based, Homo sapiens; conditions: Homo sapiens, SW780;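 note: growth inhibition of the cells, read out with a cell viability assay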
Description: SANGER: Inhibition of human SW780 cell growth in a cell viability assay.

[28] = test system: RS4-11; format: functional, cell-based; conditions: Homo sapiens;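 note: growth inhibition of RS4-11 cells, read out by a cell viability assay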
Description: SANGER: Inhibition of human RS4-11 cell growth in a cell viability assay.

[29] = test system: HOP-92; format: functional, cell-based, Homo sapiens; conditions: Homo sapiens, HOP-92;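 note: cell viability readout, with IC50 reflecting inhibition of HOP-92 cell growth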
Description: SANGER: Inhibition of human HOP-92 cell growth in a cell viability assay.

[30] = test system: VA-ES-BJ; format: functional, cell-based, Homo sapiens; conditions: Homo sapiens, VA-ES-BJ;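 note: growth inhibition of the VA-ES-BJ cell line, read out by a cell viability assay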
Description: SANGER: Inhibition of human VA-ES-BJ cell growth in a cell viability assay.

[31] = test system: GR-ST; format: functional, cell-based; conditions: Homo sapiens
Description: SANGER: Inhibition of human GR-ST cell growth in a cell viability assay.

[32] = test system: T47D; format: functional, cell-based, Homo sapiens; conditions: Homo sapiens, T47D;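 note: growth inhibition of human T47D cells, measured with a cell viability assay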
Description: SANGER: Inhibition of human T47D cell growth in a cell viability assay.

[33] = test system: D283 Med; format: functional, cell-based, Homo sapiens; conditions: Homo sapiens, D283 Med
Description: SANGER: Inhibition of human D-283MED cell growth in a cell viability assay.

[34] = test system: SW 962; format: functional, cell-based, Homo sapiens; conditions: Homo sapiens, SW 962;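 note: growth inhibition of human SW962 cells, read out by a cell viability assay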
Description: SANGER: Inhibition of human SW962 cell growth in a cell viability assay.

[35] = test system: NCI-H69; format: functional, cell-based; conditions: Homo sapiens;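 note: growth inhibition of the cell line, read out with a cell viability assay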
Description: SANGER: Inhibition of human NCI-H69 cell growth in a cell viability assay.

[36] = test system: GI-1; format: functional, cell-based, Homo sapiens; conditions: Homo sapiens, GI-1;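 note: growth inhibition of human GI-1 cells, measured with a cell viability readout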
Description: SANGER: Inhibition of human GI-1 cell growth in a cell viability assay.

[37] = test system: MOLT-4; format: functional, cell-based; conditions: Homo sapiens;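 note: growth inhibition of MOLT-4 cells, determined with a cell viability readout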
Description: SANGER: Inhibition of human MOLT-4 cell growth in a cell viability assay.

[38] = test system: NCI-H2452; format: functional, cell-based, Homo sapiens; conditions: Homo sapiens, NCI-H2452;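 note: growth inhibition of NCI-H2452 cells, read out with a cell viability assay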
Description: SANGER: Inhibition of human NCI-H2452 cell growth in a cell viability assay.

[39] = test system: DBTRG-05MG; format: functional, cell-based, Homo sapiens; conditions: Homo sapiens, DBTRG-05MG;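 note: cell viability assay measuring growth inhibition of human DBTRG-05MG cells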
Description: SANGER: Inhibition of human DBTRG-05MG cell growth in a cell viability assay.

[40] = test system: EW-11; format: functional, cell-based, Homo sapiens; conditions: Homo sapiens, EW-11;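 note: growth inhibition of human EW-11 cells, measured with a cell viability assay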
Description: SANGER: Inhibition of human EW-11 cell growth in a cell viability assay.

[41] = test system: HSC-3; format: functional, cell-based, Homo sapiens; conditions: Homo sapiens, HSC-3
Description: SANGER: Inhibition of human HSC-3 cell growth in a cell viability assay.

[42] = test system: CHL-1; format: functional, cell-based, Homo sapiens; conditions: Homo sapiens, CHL-1;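 note: cell growth inhibition, read out with a cell viability assay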
Description: SANGER: Inhibition of human CHL-1 cell growth in a cell viability assay.

[43] = test system: MHH-NB-11; format: functional, cell-based, Homo sapiens; conditions: Homo sapiens, MHH-NB-11;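 note: growth inhibition of human MHH-NB-11 cells, read out by a cell viability assay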
Description: SANGER: Inhibition of human MHH-NB-11 cell growth in a cell viability assay.

[44] = test system: MDA-MB-231; format: functional, cell-based, Homo sapiens; conditions: Homo sapiens, MDA-MB-231
Description: SANGER: Inhibition of human MDA-MB-231 cell growth in a cell viability assay.

[45] = test system: IST-MEL1; format: functional, cell-based, Homo sapiens; conditions: Homo sapiens, IST-MEL1;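 note: growth inhibition of the cell line, read out with a cell viability assay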
Description: SANGER: Inhibition of human IST-MEL1 cell growth in a cell viability assay.

[46] = test system: LB2518-MEL; format: functional, cell-based, Homo sapiens; conditions: Homo sapiens, LB2518-MEL;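 note: growth inhibition of human LB2518-MEL cells, measured with a cell viability assay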
Description: SANGER: Inhibition of human LB2518-MEL cell growth in a cell viability assay.

[47] = test system: NB7; format: functional, cell-based; conditions: Homo sapiens;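 note: growth inhibition of NB7 cells, read out with a cell viability assay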
Description: SANGER: Inhibition of human NB7 cell growth in a cell viability assay.

[48] = test system: SK-N-FI; format: functional, cell-based, Homo sapiens; conditions: Homo sapiens, SK-N-FI;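 note: cell viability assay measuring growth inhibition of human SK-N-FI cells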
Description: SANGER: Inhibition of human SK-N-FI cell growth in a cell viability assay.

[49] = test system: ML-2; format: functional, cell-based; conditions: Homo sapiens;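 note: growth inhibition of ML-2 cells, measured with a cell viability readout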
Description: SANGER: Inhibition of human ML-2 cell growth in a cell viability assay.

[50] = test system: BFTC-909; format: functional, cell-based, Homo sapiens; conditions: Homo sapiens, BFTC-909
Description: SANGER: Inhibition of human BFTC-909 cell growth in a cell viability assay.

[51] = test system: QIMR-WIL; format: functional, cell-based; conditions: Homo sapiens;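 note: growth inhibition of QIMR-WIL cells, read out with a cell viability assay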
Description: SANGER: Inhibition of human QIMR-WIL cell growth in a cell viability assay.

[52] = test system: MFH-ino; format: functional, cell-based; conditions: Homo sapiens;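 note: growth inhibition of human MFH-ino cells, read out by a cell viability assay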
Description: SANGER: Inhibition of human MFH-ino cell growth in a cell viability assay.

Structure (SMILES): O=C1N=C(NCc2cccs2)S/C1=C\c1ccc2ncccc2c1
- IC50 [1]: > 5 µM
- IC50 [2]: 3.09 µM
- IC50 [3]: > 5 µM
- IC50 [4]: > 5 µM
- IC50 [5]: > 5 µM
- IC50 [6]: > 5 µM
- IC50 [7]: > 5 µM
- IC50 [8]: > 5 µM
- IC50 [9]: > 5 µM
- IC50 [10]: > 5 µM
- IC50 [11]: > 5 µM
- IC50 [12]: > 5 µM
- IC50 [13]: > 5 µM
- IC50 [14]: > 5 µM
- IC50 [15]: > 5 µM
- IC50 [16]: > 5 µM
- IC50 [17]: > 5 µM
- IC50 [18]: > 5 µM
- IC50 [19]: > 5 µM
- IC50 [20]: > 5 µM
- IC50 [21]: > 5 µM
- IC50 [22]: > 5 µM
- IC50 [23]: > 5 µM
- IC50 [24]: > 5 µM
- IC50 [25]: > 5 µM
- IC50 [26]: > 5 µM
- IC50 [27]: > 5 µM
- IC50 [28]: > 5 µM
- IC50 [29]: > 5 µM
- IC50 [30]: > 5 µM
- IC50 [31]: > 5 µM
- IC50 [32]: > 5 µM
- IC50 [33]: > 5 µM
- IC50 [34]: > 5 µM
- IC50 [35]: > 5 µM
- IC50 [36]: > 5 µM
- IC50 [37]: > 5 µM
- IC50 [38]: > 5 µM
- IC50 [39]: > 5 µM
- IC50 [40]: > 5 µM
- IC50 [41]: > 5 µM
- IC50 [42]: > 5 µM
- IC50 [43]: > 5 µM
- IC50 [44]: > 5 µM
- IC50 [45]: > 5 µM
- IC50 [46]: > 5 µM
- IC50 [47]: > 5 µM
- IC50 [48]: > 5 µM
- IC50 [49]: > 5 µM
- IC50 [50]: > 5 µM
- IC50 [51]: > 5 µM

Structure (SMILES): COc1ccc(-c2ccc3c(N4CCOC[C@@H]4C)nc(N4CCOC[C@@H]4C)nc3n2)cc1CO [AZD-8055]
- IC50 [1]: 0.808 µM
- IC50 [2]: 1.77 µM
- IC50 [3]: 1.61 µM
- IC50 [4]: 0.681 µM
- IC50 [5]: 0.662 µM
- IC50 [6]: > 2 µM
- IC50 [7]: 0.0804 µM
- IC50 [8]: 0.604 µM
- IC50 [9]: 1.22 µM
- IC50 [10]: 0.684 µM
- IC50 [11]: 0.735 µM
- IC50 [12]: > 2 µM
- IC50 [13]: > 2 µM
- IC50 [14]: 1.75 µM
- IC50 [15]: 0.672 µM
- IC50 [16]: > 2 µM
- IC50 [17]: 1.57 µM
- IC50 [18]: > 2 µM
- IC50 [19]: 1.27 µM
- IC50 [20]: > 2 µM
- IC50 [21]: > 2 µM
- IC50 [22]: > 2 µM
- IC50 [23]: 0.569 µM
- IC50 [24]: 0.0935 µM
- IC50 [25]: 0.938 µM
- IC50 [26]: 0.819 µM
- IC50 [27]: 0.576 µM
- IC50 [28]: 0.759 µM
- IC50 [29]: > 2 µM
- IC50 [30]: 0.343 µM
- IC50 [31]: 0.53 µM
- IC50 [32]: 0.275 µM
- IC50 [33]: 0.147 µM
- IC50 [34]: 0.472 µM
- IC50 [35]: 1.67 µM
- IC50 [36]: > 2 µM
- IC50 [37]: 0.677 µM
- IC50 [38]: 0.619 µM
- IC50 [39]: > 2 µM
- IC50 [40]: 1.62 µM
- IC50 [41]: 0.429 µM
- IC50 [42]: 0.327 µM
- IC50 [43]: > 2 µM
- IC50 [44]: 1.72 µM
- IC50 [45]: 1.19 µM
- IC50 [46]: > 2 µM
- IC50 [47]: > 2 µM
- IC50 [48]: 1.56 µM
- IC50 [49]: 0.585 µM
- IC50 [50]: 1.29 µM
- IC50 [51]: 0.452 µM

Structure (SMILES): O=c1cc(-c2cccc3c2Sc2ccccc2S3)oc(N2CCOCC2)c1 [KU-55933]
- IC50 [1]: > 10 µM
- IC50 [2]: > 10 µM
- IC50 [3]: > 10 µM
- IC50 [4]: > 10 µM
- IC50 [5]: > 10 µM
- IC50 [6]: > 10 µM
- IC50 [8]: > 10 µM
- IC50 [9]: > 10 µM
- IC50 [10]: > 10 µM
- IC50 [11]: > 10 µM
- IC50 [12]: > 10 µM
- IC50 [13]: > 10 µM
- IC50 [14]: > 10 µM
- IC50 [15]: > 10 µM
- IC50 [16]: > 10 µM
- IC50 [17]: > 10 µM
- IC50 [18]: > 10 µM
- IC50 [19]: > 10 µM
- IC50 [20]: > 10 µM
- IC50 [21]: > 10 µM
- IC50 [22]: > 10 µM
- IC50 [23]: > 10 µM
- IC50 [24]: > 10 µM
- IC50 [25]: > 10 µM
- IC50 [26]: > 10 µM
- IC50 [27]: > 10 µM
- IC50 [28]: > 10 µM
- IC50 [52]: > 10 µM
- IC50 [29]: > 10 µM
- IC50 [30]: > 10 µM
- IC50 [31]: > 10 µM
- IC50 [32]: > 10 µM
- IC50 [33]: > 10 µM
- IC50 [34]: > 10 µM
- IC50 [36]: > 10 µM
- IC50 [37]: > 10 µM
- IC50 [38]: > 10 µM
- IC50 [39]: > 10 µM
- IC50 [40]: > 10 µM
- IC50 [41]: > 10 µM
- IC50 [42]: > 10 µM
- IC50 [43]: > 10 µM
- IC50 [44]: > 10 µM
- IC50 [45]: > 10 µM
- IC50 [46]: > 10 µM
- IC50 [47]: > 10 µM
- IC50 [48]: > 10 µM
- IC50 [50]: > 10 µM
- IC50 [51]: > 10 µM

Structure (SMILES): COc1ccc(C2=N[C@@H](c3ccc(Cl)cc3)[C@@H](c3ccc(Cl)cc3)N2C(=O)N2CCNC(=O)C2)c(OC(C)C)c1 [NUTLIN-3]
- IC50 [1]: > 8 µM
- IC50 [2]: > 8 µM
- IC50 [3]: > 8 µM
- IC50 [4]: > 8 µM
- IC50 [5]: > 8 µM
- IC50 [6]: > 8 µM
- IC50 [7]: > 8 µM
- IC50 [8]: > 8 µM
- IC50 [9]: > 8 µM
- IC50 [10]: > 8 µM
- IC50 [11]: > 8 µM
- IC50 [12]: > 8 µM
- IC50 [13]: > 8 µM
- IC50 [14]: > 8 µM
- IC50 [15]: > 8 µM
- IC50 [16]: 6.56 µM
- IC50 [17]: > 8 µM
- IC50 [18]: > 8 µM
- IC50 [19]: > 8 µM
- IC50 [20]: 3.74 µM
- IC50 [21]: > 8 µM
- IC50 [22]: 3.63 µM
- IC50 [23]: > 8 µM
- IC50 [24]: > 8 µM
- IC50 [25]: 1.79 µM
- IC50 [26]: > 8 µM
- IC50 [27]: 2.51 µM
- IC50 [28]: 2.72 µM
- IC50 [29]: > 8 µM
- IC50 [30]: 2.54 µM
- IC50 [31]: > 8 µM
- IC50 [32]: > 8 µM
- IC50 [33]: 3.58 µM
- IC50 [34]: > 8 µM
- IC50 [35]: > 8 µM
- IC50 [36]: > 8 µM
- IC50 [37]: 2.33 µM
- IC50 [38]: > 8 µM
- IC50 [39]: > 8 µM
- IC50 [40]: > 8 µM
- IC50 [41]: > 8 µM
- IC50 [42]: > 8 µM
- IC50 [43]: 3.27 µM
- IC50 [44]: > 8 µM
- IC50 [45]: > 8 µM
- IC50 [46]: > 8 µM
- IC50 [47]: > 8 µM
- IC50 [48]: > 8 µM
- IC50 [49]: 2.57 µM
- IC50 [50]: > 8 µM
- IC50 [51]: 1.61 µM
